Reference: the supplement of paper PMC10307832

Tests used:
Assay in all cases: relative viability (nuclei count vs DMSO), 5 days (fraction); higher = more cells survive
[1] = compound: CC(C)(C)c1cc(NC(=O)Nc2ccc(-c3cn4c(n3)sc3cc(OCCN5CCOCC5)ccc34)cc2)no1 [Quizartinib] + CS(=O)(=O)CCNCc1ccc(-c2ccc3ncnc(Nc4ccc(OCc5cccc(F)c5)c(Cl)c4)c3c2)o1 [Lapatinib] (partner 2 µM)
How it was run: (§1)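 Lung cancer cell lines were pin-tool dosed in 1536-well plates on the day after seeding, with either a lone drug or a fixed anchor-drug dose plus five library-drug doses (not always all listed) in √10 steps. Nuclei were counted on 4× images after 5 days. Relative viability is the ratio of treated-well to vehicle-well nuclei counts, with each value a median of duplicate plates.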

[2] = compound: COCC[n+]1c2c(n(Cc3cnccn3)c1C)C(=O)c1ccccc1C2=O [YM155] + Cc1cc(Nc2cc(N3CCN(C)CC3)nc(Sc3ccc(NC(=O)C4CC4)cc3)n2)n[nH]1 [Tozasertib] (partner 0.1 µM)
How it was run: as §1

[3] = compound: COCC[n+]1c2c(n(Cc3cnccn3)c1C)C(=O)c1ccccc1C2=O [YM155] + Cc1nc(NC(=O)N2CCC[C@H]2C(N)=O)sc1-c1ccnc(C(C)(C)C(F)(F)F)c1 [Alpelisib] (partner 2 µM)
How it was run: as §1

[4] = compound: COCC[n+]1c2c(n(Cc3cnccn3)c1C)C(=O)c1ccccc1C2=O [YM155] + O=C(c1cc(Cc2n[nH]c(=O)c3ccccc23)ccc1F)N1CCN(C(=O)C2CC2)CC1 [Olaparib] (partner 8 µM)
How it was run: as §1

## EKVX
[1]; first compound 0.001 µM
  relative viability: 0.188
[1]; first compound 0.003162 µM
  relative viability: 0.223
[1]; first compound 0.01 µM
  relative viability: 0.204
[1]; first compound 0.03162 µM
  relative viability: 0.202
[1]; first compound 0.1 µM
  relative viability: 0.407
[2]; first compound 0.002 µM
  relative viability: 0.401
[2]; first compound 0.006325 µM
  relative viability: 0.411
[2]; first compound 0.02 µM
  relative viability: 0.448
[2]; first compound 0.06325 µM
  relative viability: 0.379
[3]; first compound 0.002 µM
  relative viability: 0.897
[3]; first compound 0.006325 µM
  relative viability: 0.916
[3]; first compound 0.02 µM
  relative viability: 0.859
[3]; first compound 0.06325 µM
  relative viability: 0.813
[4]; first compound 0.002 µM
  relative viability: 0.912
[4]; first compound 0.006325 µM
  relative viability: 0.875
[4]; first compound 0.02 µM
  relative viability: 0.854
[4]; first compound 0.06325 µM
  relative viability: 0.401

## LC-2-ad
[1]; first compound 0.001 µM
  relative viability: 0.791
[1]; first compound 0.003162 µM
  relative viability: 0.883
[1]; first compound 0.01 µM
  relative viability: 0.724
[1]; first compound 0.03162 µM
  relative viability: 0.839
[1]; first compound 0.1 µM
  relative viability: 0.607
[2]; first compound 0.002 µM
  relative viability: 0.469
[2]; first compound 0.006325 µM
  relative viability: 0.425
[2]; first compound 0.02 µM
  relative viability: 0.438
[2]; first compound 0.06325 µM
  relative viability: 0.299
[3]; first compound 0.002 µM
  relative viability: 0.768
[3]; first compound 0.006325 µM
  relative viability: 0.977
[3]; first compound 0.02 µM
  relative viability: 1
[3]; first compound 0.06325 µM
  relative viability: 0.392
[4]; first compound 0.002 µM
  relative viability: 0.718
[4]; first compound 0.006325 µM
  relative viability: 0.685
[4]; first compound 0.02 µM
  relative viability: 0.695
[4]; first compound 0.06325 µM
  relative viability: 0.617

## EBC-1
[1]; first compound 0.001 µM
  relative viability: 0.23
[1]; first compound 0.003162 µM
  relative viability: 0.209
[1]; first compound 0.01 µM
  relative viability: 0.202
[1]; first compound 0.03162 µM
  relative viability: 0.207
[1]; first compound 0.1 µM
  relative viability: 0.197
[3]; first compound 0.002 µM
  relative viability: 0.786
[3]; first compound 0.006325 µM
  relative viability: 0.862
[3]; first compound 0.02 µM
  relative viability: 0.95
[3]; first compound 0.06325 µM
  relative viability: 0.9
[4]; first compound 0.002 µM
  relative viability: 0.819
[4]; first compound 0.006325 µM
  relative viability: 0.743
[4]; first compound 0.02 µM
  relative viability: 0.799
[4]; first compound 0.06325 µM
  relative viability: 0.622

## PC-14
[1]; first compound 0.001 µM
  relative viability: 0.271
[1]; first compound 0.003162 µM
  relative viability: 0.322
[1]; first compound 0.01 µM
  relative viability: 0.306
[1]; first compound 0.03162 µM
  relative viability: 0.333
[1]; first compound 0.1 µM
  relative viability: 0.337
[2]; first compound 0.002 µM
  relative viability: 0.585
[2]; first compound 0.006325 µM
  relative viability: 0.632
[2]; first compound 0.02 µM
  relative viability: 0.629
[2]; first compound 0.06325 µM
  relative viability: 0.564
[3]; first compound 0.002 µM
  relative viability: 1
[3]; first compound 0.006325 µM
  relative viability: 1.02
[3]; first compound 0.02 µM
  relative viability: 0.953
[3]; first compound 0.06325 µM
  relative viability: 0.811
[4]; first compound 0.002 µM
  relative viability: 0.292
[4]; first compound 0.006325 µM
  relative viability: 0.205
[4]; first compound 0.02 µM
  relative viability: 0.281
[4]; first compound 0.06325 µM
  relative viability: 0.155

## NCI-H1395
[1]; first compound 0.001 µM
  relative viability: 0.992
[1]; first compound 0.003162 µM
  relative viability: 0.941
[1]; first compound 0.01 µM
  relative viability: 0.883
[1]; first compound 0.03162 µM
  relative viability: 0.842
[1]; first compound 0.1 µM
  relative viability: 1.2
[2]; first compound 0.002 µM
  relative viability: 0.788
[2]; first compound 0.006325 µM
  relative viability: 0.779
[2]; first compound 0.02 µM
  relative viability: 0.814
[2]; first compound 0.06325 µM
  relative viability: 0.777
[3]; first compound 0.002 µM
  relative viability: 1.13
[3]; first compound 0.006325 µM
  relative viability: 1.24
[3]; first compound 0.02 µM
  relative viability: 1.14
[3]; first compound 0.06325 µM
  relative viability: 1.12
[4]; first compound 0.002 µM
  relative viability: 0.489
[4]; first compound 0.006325 µM
  relative viability: 0.457
[4]; first compound 0.02 µM
  relative viability: 0.46
[4]; first compound 0.06325 µM
  relative viability: 0.456

## NCI-H2405
[1]; first compound 0.001 µM
  relative viability: 1.11
[1]; first compound 0.003162 µM
  relative viability: 1.16
[1]; first compound 0.01 µM
  relative viability: 0.969
[1]; first compound 0.03162 µM
  relative viability: 0.934
[1]; first compound 0.1 µM
  relative viability: 1.3
[2]; first compound 0.002 µM
  relative viability: 0.678
[2]; first compound 0.006325 µM
  relative viability: 0.704
[2]; first compound 0.02 µM
  relative viability: 0.637
[2]; first compound 0.06325 µM
  relative viability: 0.513
[3]; first compound 0.002 µM
  relative viability: 0.826
[3]; first compound 0.006325 µM
  relative viability: 0.593
[3]; first compound 0.02 µM
  relative viability: 0.826
[3]; first compound 0.06325 µM
  relative viability: 0.345
[4]; first compound 0.002 µM
  relative viability: 0.753
[4]; first compound 0.006325 µM
  relative viability: 0.771
[4]; first compound 0.02 µM
  relative viability: 0.637
[4]; first compound 0.06325 µM
  relative viability: 0.397

## SW 900
[2]; first compound 0.002 µM
  relative viability: 0.816
[2]; first compound 0.006325 µM
  relative viability: 0.553
[2]; first compound 0.02 µM
  relative viability: 0.588
[2]; first compound 0.06325 µM
  relative viability: 0.45
[4]; first compound 0.006325 µM
  relative viability: 0.788
[4]; first compound 0.02 µM
  relative viability: 0.848
[4]; first compound 0.06325 µM
  relative viability: 0.808

## NCI-H2009
[1]; first compound 0.001 µM
  relative viability: 0.141
[1]; first compound 0.003162 µM
  relative viability: 0.865
[1]; first compound 0.01 µM
  relative viability: 0.884
[1]; first compound 0.03162 µM
  relative viability: 0.695
[1]; first compound 0.1 µM
  relative viability: 0.93
[2]; first compound 0.002 µM
  relative viability: 0.739
[2]; first compound 0.006325 µM
  relative viability: 0.791
[2]; first compound 0.02 µM
  relative viability: 0.776
[2]; first compound 0.06325 µM
  relative viability: 0.458
[3]; first compound 0.002 µM
  relative viability: 1.2
[3]; first compound 0.006325 µM
  relative viability: 1.14
[3]; first compound 0.02 µM
  relative viability: 1.11
[3]; first compound 0.06325 µM
  relative viability: 0.504
[4]; first compound 0.002 µM
  relative viability: 0.66
[4]; first compound 0.006325 µM
  relative viability: 0.673
[4]; first compound 0.02 µM
  relative viability: 0.582
[4]; first compound 0.06325 µM
  relative viability: 0.337

## EPLC-272H
[1]; first compound 0.001 µM
  relative viability: 0.681
[1]; first compound 0.003162 µM
  relative viability: 1.07
[1]; first compound 0.01 µM
  relative viability: 0.834
[1]; first compound 0.03162 µM
  relative viability: 0.923
[1]; first compound 0.1 µM
  relative viability: 1.34
[2]; first compound 0.002 µM
  relative viability: 0.349
[2]; first compound 0.006325 µM
  relative viability: 0.198
[2]; first compound 0.02 µM
  relative viability: 0.449
[2]; first compound 0.06325 µM
  relative viability: 0.223
[3]; first compound 0.002 µM
  relative viability: 0.917
[3]; first compound 0.006325 µM
  relative viability: 0.937
[3]; first compound 0.02 µM
  relative viability: 0.915
[3]; first compound 0.06325 µM
  relative viability: 1.02
[4]; first compound 0.002 µM
  relative viability: 0.825
[4]; first compound 0.006325 µM
  relative viability: 0.891
[4]; first compound 0.02 µM
  relative viability: 0.722
[4]; first compound 0.06325 µM
  relative viability: 0.811

## LCLC-103H
[2]; first compound 0.002 µM
  relative viability: 0.569
[2]; first compound 0.006325 µM
  relative viability: 0.454
[2]; first compound 0.02 µM
  relative viability: 0.464
[2]; first compound 0.06325 µM
  relative viability: 0.487
[3]; first compound 0.002 µM
  relative viability: 1
[3]; first compound 0.006325 µM
  relative viability: 0.997
[3]; first compound 0.02 µM
  relative viability: 0.946
[3]; first compound 0.06325 µM
  relative viability: 1.09
[4]; first compound 0.002 µM
  relative viability: 0.738
[4]; first compound 0.006325 µM
  relative viability: 0.845
[4]; first compound 0.02 µM
  relative viability: 0.77
[4]; first compound 0.06325 µM
  relative viability: 0.801
